In the NIST ThermoML archive (doi:10.1021/je025610o):
Numbers after ± are expanded uncertainties.

Experiment: xn = mol fraction of the nth substance listed
Settings: 100 kPa, Liquid; for thermal conductivity: Hot wire method

OCCOCCOCCO [triethylene glycol] + O
mass density (293.85 K, x1 = 0.25): 1108 ± 2 kg/m3 | viscosity (293.85 K, x1 = 0.25): 19.2 ± 0.5 mPa·s | mass density (294.05 K, x1 = 0.5): 1120 ± 2 kg/m3 | viscosity (294.05 K, x1 = 0.5): 36 ± 0.9 mPa·s | mass density (294.15 K, x1 = 0.75): 1122 ± 2 kg/m3 | viscosity (294.15 K, x1 = 0.75): 43.2 ± 1.1 mPa·s | thermal conductivity (295 K, x1 = 0.25): 0.258 ± 0.005 W/m/K | thermal conductivity (295.5 K, x1 = 0.5): 0.21 ± 0.004 W/m/K | thermal conductivity (295.5 K, x1 = 0.75): 0.195 ± 0.004 W/m/K | mass density (313.05 K, x1 = 0.25): 1093 ± 2 kg/m3 | viscosity (313.05 K, x1 = 0.25): 8.6 ± 0.2 mPa·s | mass density (313.05 K, x1 = 0.5): 1105 ± 2 kg/m3 | viscosity (313.05 K, x1 = 0.5): 15.2 ± 0.4 mPa·s | mass density (313.05 K, x1 = 0.75): 1108 ± 2 kg/m3 | viscosity (313.05 K, x1 = 0.75): 18.3 ± 0.5 mPa·s | thermal conductivity (323.8 K, x1 = 0.25): 0.268 ± 0.005 W/m/K | thermal conductivity (324.6 K, x1 = 0.5): 0.216 ± 0.004 W/m/K | thermal conductivity (327.1 K, x1 = 0.75): 0.197 ± 0.004 W/m/K | mass density (333.05 K, x1 = 0.25): 1078 ± 2 kg/m3 | viscosity (333.05 K, x1 = 0.25): 4.52 ± 0.13 mPa·s | mass density (333.05 K, x1 = 0.5): 1089 ± 2 kg/m3 | viscosity (333.05 K, x1 = 0.5): 7.52 ± 0.2 mPa·s | mass density (333.05 K, x1 = 0.75): 1092 ± 2 kg/m3 | viscosity (333.05 K, x1 = 0.75): 9.04 ± 0.24 mPa·s | thermal conductivity (349.1 K, x1 = 0.25): 0.275 ± 0.006 W/m/K | thermal conductivity (349.5 K, x1 = 0.5): 0.219 ± 0.004 W/m/K | thermal conductivity (349.8 K, x1 = 0.75): 0.201 ± 0.004 W/m/K | mass density (353.05 K, x1 = 0.25): 1061 ± 2 kg/m3 | viscosity (353.05 K, x1 = 0.25): 2.7 ± 0.08 mPa·s | mass density (353.05 K, x1 = 0.5): 1073 ± 2 kg/m3 | viscosity (353.05 K, x1 = 0.5): 4.32 ± 0.12 mPa·s | mass density (353.05 K, x1 = 0.75): 1076 ± 2 kg/m3 | viscosity (353.05 K, x1 = 0.75): 5.19 ± 0.15 mPa·s | thermal conductivity (372.7 K, x1 = 0.75): 0.202 ± 0.004 W/m/K | thermal conductivity (373.6 K, x1 = 0.5): 0.22 ± 0.005 W/m/K | thermal conductivity (373.8 K, x1 = 0.25): 0.28 ± 0.006 W/m/K | mass density (379.65 K, x1 = 0.25): 1039 ± 2 kg/m3 | viscosity (382.15 K, x1 = 0.25): 1.5 ± 0.04 mPa·s | mass density (384.25 K, x1 = 0.5): 1046 ± 2 kg/m3 | mass density (384.95 K, x1 = 0.75): 1049 ± 2 kg/m3 | viscosity (386.75 K, x1 = 0.5): 2.09 ± 0.06 mPa·s | viscosity (387.45 K, x1 = 0.75): 2.41 ± 0.07 mPa·s | mass density (389.35 K, x1 = 0.25): 1030 ± 2 kg/m3 | mass density (391.35 K, x1 = 0.5): 1041 ± 2 kg/m3 | mass density (392.55 K, x1 = 0.75): 1044 ± 2 kg/m3 | viscosity (393.35 K, x1 = 0.25): 1.27 ± 0.04 mPa·s | viscosity (395.35 K, x1 = 0.5): 1.84 ± 0.05 mPa·s | thermal conductivity (396 K, x1 = 0.5): 0.221 ± 0.005 W/m/K | thermal conductivity (396.4 K, x1 = 0.25): 0.285 ± 0.006 W/m/K | viscosity (396.55 K, x1 = 0.75): 2.11 ± 0.06 mPa·s | thermal conductivity (397.6 K, x1 = 0.75): 0.2 ± 0.004 W/m/K | mass density (405.75 K, x1 = 0.25): 1016 ± 2 kg/m3 | mass density (407.45 K, x1 = 0.75): 1032 ± 2 kg/m3 | mass density (407.85 K, x1 = 0.5): 1028 ± 2 kg/m3 | viscosity (409.75 K, x1 = 0.25): 1 ± 0.03 mPa·s | viscosity (411.45 K, x1 = 0.75): 1.68 ± 0.05 mPa·s | viscosity (411.85 K, x1 = 0.5): 1.43 ± 0.04 mPa·s | thermal conductivity (421.3 K, x1 = 0.25): 0.292 ± 0.006 W/m/K | thermal conductivity (421.9 K, x1 = 0.5): 0.221 ± 0.005 W/m/K | thermal conductivity (422.5 K, x1 = 0.75): 0.198 ± 0.004 W/m/K | mass density (423.35 K, x1 = 0.25): 999.2 ± 2.2 kg/m3 | mass density (425.35 K, x1 = 0.75): 1016 ± 2 kg/m3 | mass density (425.95 K, x1 = 0.5): 1011 ± 2 kg/m3 | viscosity (427.35 K, x1 = 0.25): 0.813 ± 0.025 mPa·s | viscosity (429.35 K, x1 = 0.75): 1.3 ± 0.04 mPa·s | viscosity (429.95 K, x1 = 0.5): 1.11 ± 0.03 mPa·s | mass density (442.45 K, x1 = 0.25): 980 ± 2 kg/m3 | mass density (443.45 K, x1 = 0.5): 995 ± 2 kg/m3 | mass density (444.55 K, x1 = 0.75): 999.5 ± 2.3 kg/m3 | thermal conductivity (445 K, x1 = 0.25): 0.282 ± 0.006 W/m/K | viscosity (446.45 K, x1 = 0.25): 0.662 ± 0.021 mPa·s | thermal conductivity (446.5 K, x1 = 0.75): 0.195 ± 0.004 W/m/K | viscosity (447.45 K, x1 = 0.5): 0.903 ± 0.028 mPa·s | thermal conductivity (448.3 K, x1 = 0.5): 0.216 ± 0.004 W/m/K | viscosity (448.55 K, x1 = 0.75): 1.03 ± 0.03 mPa·s

OCCO [1,2-ethanediol] + O
mass density (296.4 K, x1 = 0.25): 1068 ± 2 kg/m3 | viscosity (296.45 K, x1 = 0.25): 3.69 ± 0.11 mPa·s | mass density (297.05 K, x1 = 0.5): 1094 ± 2 kg/m3 | viscosity (297.05 K, x1 = 0.5): 7.61 ± 0.21 mPa·s | mass density (297.35 K, x1 = 0.75): 1106 ± 2 kg/m3 | viscosity (297.35 K, x1 = 0.75): 12.3 ± 0.3 mPa·s | thermal conductivity (298.5 K, x1 = 0.75): 0.269 ± 0.005 W/m/K | thermal conductivity (303.4 K, x1 = 0.25): 0.391 ± 0.008 W/m/K | thermal conductivity (312.3 K, x1 = 0.5): 0.316 ± 0.006 W/m/K | mass density (313.05 K, x1 = 0.25): 1058 ± 2 kg/m3 | viscosity (313.05 K, x1 = 0.25): 2.29 ± 0.07 mPa·s | mass density (313.05 K, x1 = 0.5): 1083 ± 2 kg/m3 | viscosity (313.05 K, x1 = 0.5): 4.49 ± 0.13 mPa·s | mass density (313.05 K, x1 = 0.75): 1094 ± 2 kg/m3 | viscosity (313.05 K, x1 = 0.75): 6.97 ± 0.19 mPa·s | thermal conductivity (323.6 K, x1 = 0.25): 0.4 ± 0.008 W/m/K | thermal conductivity (324.2 K, x1 = 0.75): 0.272 ± 0.006 W/m/K | thermal conductivity (324.4 K, x1 = 0.5): 0.314 ± 0.006 W/m/K | mass density (333.05 K, x1 = 0.25): 1045 ± 2 kg/m3 | viscosity (333.05 K, x1 = 0.25): 1.47 ± 0.04 mPa·s | mass density (333.1 K, x1 = 0.5): 1069 ± 2 kg/m3 | viscosity (333.1 K, x1 = 0.5): 2.62 ± 0.08 mPa·s | mass density (333.1 K, x1 = 0.75): 1080 ± 2 kg/m3 | viscosity (333.1 K, x1 = 0.75): 3.88 ± 0.11 mPa·s | thermal conductivity (347.5 K, x1 = 0.75): 0.277 ± 0.006 W/m/K | thermal conductivity (347.7 K, x1 = 0.5): 0.324 ± 0.007 W/m/K | thermal conductivity (348.6 K, x1 = 0.25): 0.416 ± 0.008 W/m/K | mass density (353.05 K, x1 = 0.25): 1030 ± 2 kg/m3 | viscosity (353.05 K, x1 = 0.25): 0.99 ± 0.03 mPa·s | mass density (353.05 K, x1 = 0.5): 1054 ± 2 kg/m3 | viscosity (353.05 K, x1 = 0.5): 1.7 ± 0.05 mPa·s | mass density (353.05 K, x1 = 0.75): 1065 ± 2 kg/m3 | viscosity (353.05 K, x1 = 0.75): 2.42 ± 0.07 mPa·s | thermal conductivity (371.9 K, x1 = 0.75): 0.281 ± 0.006 W/m/K | thermal conductivity (372 K, x1 = 0.25): 0.423 ± 0.009 W/m/K | thermal conductivity (372.8 K, x1 = 0.5): 0.33 ± 0.007 W/m/K | mass density (373.45 K, x1 = 0.75): 1049 ± 2 kg/m3 | viscosity (373.45 K, x1 = 0.75): 1.62 ± 0.05 mPa·s | mass density (374.85 K, x1 = 0.25): 1013 ± 2 kg/m3 | mass density (376.05 K, x1 = 0.5): 1035 ± 2 kg/m3 | viscosity (378.85 K, x1 = 0.25): 0.689 ± 0.021 mPa·s | viscosity (380.05 K, x1 = 0.5): 1.07 ± 0.03 mPa·s | mass density (383.35 K, x1 = 0.75): 1041 ± 2 kg/m3 | viscosity (383.35 K, x1 = 0.75): 1.37 ± 0.04 mPa·s | mass density (390.25 K, x1 = 0.5): 1023 ± 2 kg/m3 | mass density (393.2 K, x1 = 0.75): 1033 ± 2 kg/m3 | viscosity (393.2 K, x1 = 0.75): 1.18 ± 0.04 mPa·s | viscosity (394.25 K, x1 = 0.5): 0.87 ± 0.03 mPa·s | thermal conductivity (395.9 K, x1 = 0.25): 0.428 ± 0.009 W/m/K | thermal conductivity (396.8 K, x1 = 0.75): 0.28 ± 0.006 W/m/K | mass density (396.95 K, x1 = 0.25): 995.5 ± 2.2 kg/m3 | thermal conductivity (397 K, x1 = 0.5): 0.332 ± 0.007 W/m/K | viscosity (400.95 K, x1 = 0.25): 0.518 ± 0.017 mPa·s | mass density (403.15 K, x1 = 0.75): 1025 ± 2 kg/m3 | viscosity (403.15 K, x1 = 0.75): 1.02 ± 0.03 mPa·s | mass density (404.75 K, x1 = 0.75): 1023 ± 2 kg/m3 | mass density (406.05 K, x1 = 0.5): 1010 ± 2 kg/m3 | viscosity (407.75 K, x1 = 0.75): 0.978 ± 0.03 mPa·s | viscosity (410.05 K, x1 = 0.5): 0.706 ± 0.022 mPa·s | mass density (413.15 K, x1 = 0.75): 1016 ± 2 kg/m3 | viscosity (413.15 K, x1 = 0.75): 0.903 ± 0.027 mPa·s | mass density (417.15 K, x1 = 0.25): 977.4 ± 2.2 kg/m3 | mass density (418.35 K, x1 = 0.75): 1012 ± 2 kg/m3 | thermal conductivity (419.9 K, x1 = 0.75): 0.279 ± 0.006 W/m/K | thermal conductivity (421 K, x1 = 0.25): 0.432 ± 0.009 W/m/K | viscosity (421.15 K, x1 = 0.25): 0.418 ± 0.014 mPa·s | thermal conductivity (421.7 K, x1 = 0.5): 0.32 ± 0.007 W/m/K | viscosity (422.35 K, x1 = 0.75): 0.806 ± 0.025 mPa·s | mass density (423.55 K, x1 = 0.5): 994.5 ± 2.2 kg/m3 | viscosity (427.55 K, x1 = 0.5): 0.573 ± 0.018 mPa·s | mass density (431.55 K, x1 = 0.25): 964.9 ± 2.2 kg/m3 | mass density (431.95 K, x1 = 0.75): 1000 ± 2 kg/m3 | viscosity (435.55 K, x1 = 0.25): 0.366 ± 0.012 mPa·s | viscosity (435.95 K, x1 = 0.75): 0.691 ± 0.022 mPa·s | mass density (436.65 K, x1 = 0.5): 982.5 ± 2.2 kg/m3 | viscosity (440.65 K, x1 = 0.5): 0.5 ± 0.02 mPa·s | thermal conductivity (441.6 K, x1 = 0.75): 0.276 ± 0.006 W/m/K | mass density (445.85 K, x1 = 0.75): 987 ± 2 kg/m3 | viscosity (449.85 K, x1 = 0.75): 0.594 ± 0.019 mPa·s
